Measured values from patent US5134150A, “Inhibition of the 5-lipoxygenase pathway” (priority 1989, dated 1992).
Where two headings read alike, the source gives them in different places.

What was measured:
[1] = system: Infiltration of Polymorphonuclear Leukocytes into Sites of Carrageenan-Induced Inflammation; assay: Mouse carrageenan peritonitis (PMN infiltration); type: in vivo, mouse (male Balb/c); conditions: for PMN infiltration, result in words: carrageenan peritonitis, mice
Description: (§1) In the following Examples where mice were used, they were male Balb/c mice (20-28 g), and where rats were used, they were male Lewis rats (180-210 g). All mice and rats were obtained from Charles River Breeding Laboratories, Kingston, N.Y. Within a single experiment, mice and rats were sex and age matched.
(§2) The compounds of Formula (I) were used either as the free base or in the appropriate salt form. Levamisole was used as the hydrochloride salt. The compounds were homogenized in 0.5% tragacanth. Compounds were administered by gavage at the indicated dose in a final volume of 10 ml/kg. Nordihydroguaiaretic acid (NDGA) was solubilized in dimethylacetamide and diluted with olive oil for subcutaneous administration.
Mice were pretreated with either the test compound or vehicle one hour before the intraperitoneal injection of a 1.0% carrageenan suspension in saline (0.2 ml/mouse). Mice were sacrificed by cervical dislocation two hours after injection, and 3.0 ml of phosphate buffered saline, without Ca^++ or Mg^++, was injected into the peritoneum. Following massage, a 2.0 ml aliquot of the lavage fluid was removed, and the total cell count determined on a Coulter counter and differential cell count determined by microscopic examination of Giesma-stained slides.

[2] = system: Arachidonic Acid-Induced Inflammation of the Mouse Ear; assay: Arachidonic acid-induced mouse ear inflammation; type: in vivo, mouse (male Balb/c); conditions: for inhibition in vivo at 50 mg/kg: Mus musculus, 1 h, Table 7A, read-out: % Inhibition of Ear Swelling
Description: as §1, §2
Arachidonic acid in acetone ([…]) was applied to the inner surface of the left ear. The thickness of both ears was then measured with a dial micrometer one hour after treatment, and the data were expressed as the change in thickness (10^-3 cm) between treated and untreated ears.
Test compounds were given orally in 0.5% tragacanth at the times indicated in the text prior to the topical application of arachidonic acid.
Parenteral administration of compound was accomplished by subcutaneous injection of solution as indicated.

[3] = system: 5-lipoxygenase and LTA4 synthetase; assay: Di-HETE / LTB4 production by high speed supernatant of RBL-1 cells; type: biochemical; conditions: RBL-1 high speed supernatant; Table 9A; read-out: 5-LO IC50 (LTB4 production)
Experimental: For in vitro experiments, compounds were dissolved at appropriate concentrations in ethanol or DMSO (dimethylsulfoxide) (final concentration≤1.0%) and then diluted to final concentrations using the buffers indicated in the text.
The activities of these enzymes in extracts of RBL-1 cells were assayed using the method of Jakschik and Lee, Nature, 287, 51-52 (1980). RBL-1 cells were obtained from the American Type Culture Collection (#CRL 1378) and were grown at 37° C. (5% CO2 in air) in spinner culture in MEM supplemented with 10% heat inactivated fetal calf serum. Harvested cells were washed with 50 mM sodium phosphate buffer, pH 7.0, containing 1 mM EDTA and 0.1% gelatin, resuspended in fresh buffer (5×10^7 cells/ml) and disrupted by nitrogen cavitation using the Parr bomb at 750 psi for 10 min. The broken cell extract was then centrifuged at 10,000× g for 20 minutes (min) and the supernatant centrifuged at 100,000 xIg for 60 min. Aliquots (0.25 mls) of the supernatant were preincubated with or without drugs for 10 min, after which 10 μl CaCl2 (50 mM) was added and the reaction was initiated with 2.5 μl of 2.5 mM arachidonic acid-1-^14 C (final concentration was 25 μM; specific activity 20,000 dpm/nmole). After incubation for 3 min at 37° C., the reaction was terminated by addition of 2 volumes (0.5 ml) ice cold acetone and the sample was allowed to deproteinize on ice for 10 min prior to centrifugation at 1,000× g for 10 min. The deproteinized supernatant was adjusted to pH 3.5 with 2N formic acid and extracted with 2 volumes of ice cold ethyl acetate. The extracted samples were dried under argon, redissolved in ethyl acetate and applied to Whatman LK5D thin layer chromatography (TLC) plates which were developed using the A-9 solvent system [organic phase of ethyl acetate: 2,2,5-trimethylpentane:acetic acid: water (110:50:20:10)] described by Hamberg and Samuelsson, J. Biol. Chem., 241, 257-263 (1966). Arachidonic acid, 5-HETE, LTB4 and PGD2 were quantified with a Berthold LB 2832 autoscanner.
The 5-lipoxygenase and LTA4 synthetase activities were further studied under the following conditions. An additional centrifugation of the RBL-1 supernatant was run at 100,000× g for 60 min, to remove the particulate cyclooxygenase activity. Sample incubation was done under conditions similar to those described above, i.e., 2 mM CaCl2 and […] arachidonic acid-1-^14 C, however, with an incubation time of 5 min at 5° C. Under these conditions, only the 5-lipoxygenase pathway metabolites were detectable. The 5-HETE and di-HETEs were formed at a linear rate, and substantial amounts of the arachidonic acid-1-^14 C substrate were utilized.

[4] = system: LTB4 synthesis by peritoneal exudate cells; assay: Ex vivo production of LTB4 from peritoneal exudate cells of drug-treated mice; type: in vivo, mouse; conditions: for inhibition at 50 mg/kg: Mus musculus, po, 50 mg/kg p.o.
Description: In the following Examples where mice were used, they were male Balb/c mice (20-28 g), and where rats were used, they were male Lewis rats (180-210 g). All mice and rats were obtained from Charles River Breeding Laboratories, Kingston, N.Y. Within a single experiment, mice and rats were sex and age matched. Auranofin, phenidone, indomethacin, naproxen, and ibuprofen were each used as the free base. The compounds of Formula (I) were used either as the free base or in the appropriate salt form. Levamisole was used as the hydrochloride salt. […] Nordihydroguaiaretic acid (NDGA) was solubilized in dimethylacetamide and diluted with olive oil for subcutaneous administration. Carrageenan-induced peritoneal exudate cells from normal or drug-treated mice were washed and suspended in 2.2 ml of phosphate buffered saline. […] The cell preparation was centrifuged at 1500 rpm for 10 min and the supernatant was extracted using a C-18 silica column. […] A tetrahydrofuran, methanol, water, acetic acid (25:30:45: 0.1) solvent system, adjusted to pH 5.5 with ammonium hydroxide, was used at a flow rate of 0.7 ml/min. Cell derived LTB4 was quantified utilizing standard curves constructed with known amounts of synthetic LTB4.

| Structure (SMILES) | IC50 [3] [µM] | inhibition in vivo at 50 mg/kg ([2]; 50 mg/kg s.c. or i.p.) [%] | other results |
| --- | --- | --- | --- |
| CC(=O)OC[C@H]1O[C@@H]([S-])[C@H](OC(C)=O)[C@@H](OC(C)=O)[C@@H]1OC(C)=O.CCP(CC)CC.[Au+] [Auranofin] |  |  | % Change (PMN) ([1]; 2 mg Au/kg, p.o., Table 3): -6%; PMN (Mean ± S.D.) ([1]; 2 mg Au/kg, p.o., Table 3): 7.50 ± 1.57 × 10^-5 /ml; PMN infiltration, result in words [1]: did not impair inflammatory cell infiltration |
| c1cc(N2CCCC2)ccc1-c1nc2n(c1-c1ccc(N3CCCC3)cc1)CCS2 [Compound 3, 5,6-bis(4-(1-pyrrolidinyl)phenyl)-2,3-dihydroimidazo[2,1-b] thiazole] | 0.1 | 44 |  |
| c1cc(N2CCCCC2)ccc1-c1nc2n(c1-c1ccc(N3CCCCC3)cc1)CCS2 [Compound 4, 5,6-bis(4-(1-piperidinyl)phenyl)-2,3-dihydroimidazo[2,1-b] thiazole] | 0.6 | 22 |  |
| c1cc(-c2c(-c3ccc4c(c3)OCO4)nc3n2CCS3)ccn1 [Compound 5] | 10 |  |  |
| c1cc(-c2nc3n(c2-c2ccc4c(c2)OCO4)CCS3)ccn1 [Compound 7, 6-(4-pyridyl)-5-(3,4-methylenedioxyphenyl)-2,3-dihydroimidazo [2,1-b]thiazole] | 10 | 62 |  |
| CCN(CC)c1ccc(-c2nc3n(c2-c2ccc(N(CC)CC)cc2)CCS3)cc1 [Compound 9, 5,6-bis(4-N,N-diethylaminophenyl)-2,3-dihydroimidazo [2,1-b]thiazole] | 0.16 |  | inhibition in vivo at 50 mg/kg ([2]; po, 50 mg/kg p.o.): 17% |
| c1cc(-c2nc3n(c2-c2ccncc2)CCS3)ccn1 [Compound 11, 5,6-Bis(4-pyridyl)-2,3-dihydroimidazo(2,1-b) thiazole] | 33 | 29 |  |
| c1cc2c(cc1-c1nc3n(c1-c1ccc4c(c1)OCO4)CCS3)OCO2 [Compound 16] | 1.5 |  | inhibition in vivo at 50 mg/kg ([2]; po, 50 mg/kg p.o.): 32% |
| COc1ccc(-c2nc3n(c2-c2ccc(OC)cc2)CCC3)cc1 [Compound 22] |  | 15 |  |
| c1cc(-c2c(-c3ccc(N4CCCC4)cc3)nc3n2CCS3)ccn1 [Compound 25, 5-(4-pyridyl)-6-(4-(pyrrolidin-1-yl)-phenyl)-2,3-dihydroimidazo[2,1-b]thiazole] | 0.5 |  | inhibition in vivo at 50 mg/kg ([2]; po, 50 mg/kg p.o.): 17% |
| CC(=O)Nc1ccc(-c2nc3n(c2-c2ccncc2)CCS3)cc1 [Compound 38, 5-(4-pyridyl)-6-(4-acetamidophenyl)-2,3-dihydroimidazo (2,1-b)thiazole] | 30 |  |  |
| CC(C)Cc1ccc(C(C)C(=O)O)cc1 (stereo not shown) [Ibuprofen, reference compound] |  |  | Mouse ear edema, result in words ([2]; mouse, in vivo): did not exhibit detectable anti-inflammatory activity |
| c1ccc([C@H]2CN3CCSC3=N2)cc1 [Levamisole] |  |  | PMN infiltration, result in words [1]: did not impair inflammatory cell infiltration |
| CC(Cc1ccc(O)c(O)c1)C(C)Cc1ccc(O)c(O)c1 (stereo not shown) [NDGA, Nordihydroguaiaretic acid] |  |  | PMN infiltration, result in words [1]: effective |
| COc1ccc2cc([C@H](C)C(=O)O)ccc2c1 [Naproxen] |  |  | inhibition at 50 mg/kg ([4]; Experiment 1): 0%; inhibition at 50 mg/kg ([4]; Experiment 2): 15%; inhibition at 50 mg/kg ([4]; Experiment 3): 0%; LTB4 production ex vivo, result in words ([4]; mouse, in vivo): inactive |

Now from value to compound, other results behind:

| IC50 [3] [µM] | Structure (SMILES) | inhibition in vivo at 50 mg/kg ([2]; 50 mg/kg s.c. or i.p.) [%] | other results |
| --- | --- | --- | --- |
| 7 | CCCNc1ccc(-c2nc3n(c2-c2ccncc2)CCS3)cc1 [Compound 2, 6-(4-(1-propylamino)phenyl)-5-(4-pyridyl)-2,3-dihydroimidazo[2,1-b]thiazole] | 23 |  |
| 0.6 | CN(C)c1ccc(-c2nc3n(c2-c2ccc(F)cc2)CCS3)cc1 [Compound 6, 6-(4-dimethylaminophenyl)-5-(4-fluorophenyl)-2,3-dihydroimidazo[2,1-b]thiazole] | 48 |  |
| 8 | Fc1ccc(-c2nc3n(c2-c2ccc(F)cc2)CCC3)cc1 [Compound 8] |  | inhibition in vivo at 50 mg/kg ([2]; po, 50 mg/kg p.o.): 40% |
| 1.5 | CN(C)c1ccc(-c2c(-c3ccc(F)cc3)nc3n2CCS3)cc1 [Compound 10, 5-(4-Dimethylaminophenyl)-6-(4-fluorophenyl)-2,3-dihydroimidazo[2,1-b]-thiazole] | 7 |  |
| 15 | N#Cc1ccc(-c2nc3n(c2-c2ccc(C#N)cc2)CCS3)cc1 [Compound 13, 5,6-bis(4-cyanophenyl)-2,3-dihydroimidazo[2,1-b]thiazole] | 50 |  |
| 0.6 | COc1ccc(-c2nc3n(c2-c2ccc(F)cc2)CCS3)cc1 [Compound 14] | 64 |  |
| 10 | FC(F)(F)c1ccc(-c2nc3n(c2-c2ccc(C(F)(F)F)cc2)CCS3)cc1 [Compound 15] |  |  |
| 5 | Fc1ccc(-c2nc3n(c2-c2ccc(F)cc2)CCS3)cc1 [Compound 19] |  | inhibition in vivo at 50 mg/kg ([2]; po, 50 mg/kg p.o.): 34% |
| 5.6 | COc1ccc(-c2nc3n(c2-c2ccc(OC)cc2)CCCS3)cc1 [Compound 20] | 47 |  |
| 2.8 | COc1ccc(-c2nc3n(c2-c2ccc(OC)cc2)CCS3)cc1 [Compound 21] |  |  |
| 42 | Fc1ccc(-c2nc3n(c2-c2ccccn2)CCS3)cc1 [Compound 23, 5-(2-pyridinyl)-6-(4-fluorophenyl)-2,3-dihydroimidazo[2,1-b]thiazole] | 65 |  |
| 20 | Fc1ccc(-c2c(-c3ccccn3)nc3n2CCS3)cc1 [Compound 24, 5-(4-fluorophenyl)-6-(2-pyridinyl)-2,3-dihydroimidazo[2,1-b]thiazole] | 69 |  |
| 60 | [O-][S+]1CCn2c1nc(-c1ccc(F)cc1)c2-c1ccc(F)cc1 (stereo not shown) [Compound 30] |  |  |
| < 33 | O=S1(=O)CCn2c1nc(-c1ccc(F)cc1)c2-c1ccc(F)cc1 [Compound 31] |  |  |
| > 100 | CSc1ccc(-c2nc3n(c2-c2ccc(SC)cc2)CCS3)cc1 [Compound 32] |  |  |
